Assay results as given in patent US20260191968A1, “PROTAC DEGRADERS OF MLLT1 AND/OR MLLT3” (DARK BLUE THERAPEUTICS LTD, priority 2024, published 2026).

Experiments:
MLLT1 = biological target: T1, MLLT1 (Homo sapiens, UniProt Q03111); assay: MLLT1 degradation assay in MV4-11 cells (JESS chemiluminescent detection), three concentrations, 24 h; type: cell-based; conditions: with respect to DMSO control
T1 construct: host or cells: MV4-11
T1 sequence (Q03111 1-559): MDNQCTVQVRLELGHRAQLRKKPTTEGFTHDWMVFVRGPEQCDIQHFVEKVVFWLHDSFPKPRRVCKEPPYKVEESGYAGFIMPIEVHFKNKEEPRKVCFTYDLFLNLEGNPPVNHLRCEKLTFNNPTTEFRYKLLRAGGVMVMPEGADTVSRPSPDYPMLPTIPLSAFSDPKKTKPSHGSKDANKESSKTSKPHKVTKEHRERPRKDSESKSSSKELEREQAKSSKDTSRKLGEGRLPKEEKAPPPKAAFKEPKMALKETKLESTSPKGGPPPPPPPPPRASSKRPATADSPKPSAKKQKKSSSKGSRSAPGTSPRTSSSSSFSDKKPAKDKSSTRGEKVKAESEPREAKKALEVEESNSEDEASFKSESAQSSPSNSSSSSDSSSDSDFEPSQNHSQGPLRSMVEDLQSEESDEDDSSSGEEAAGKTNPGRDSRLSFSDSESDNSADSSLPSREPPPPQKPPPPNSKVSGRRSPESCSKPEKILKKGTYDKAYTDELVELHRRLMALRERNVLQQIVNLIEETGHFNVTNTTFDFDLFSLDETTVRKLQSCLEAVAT
How it was run: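 MV4-11 cells treated 24 h at 37° C, 5% CO2 with 1000, 100 and 10 nM compound (0.1% DMSO final). MLLT1 quantified by automated capillary chemiluminescent immunodetection; band peak area expressed as % degradation relative to DMSO control.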

MV4-11 cells = assay: MV4-11 cellular proliferative assay, Assay Format B (CTG 2.0, 168 h); type: cell-based; conditions: Homo sapiens, 168 h (7 days), CTG 2.0, read-out: IC50 (MV4-11 cellular proliferative assay, Assay format B)
How it was run: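 MV4-11 cells seeded overnight in IMDM + 10% FBS, then exposed to 10-point, 3-fold dilutions from 1 uM or 100 nM top concentration (0.3% DMSO final) for 168 h at 37 °C. CTG 2.0 luminescence read; % viability vs DMSO control fitted by four-parameter logistic regression.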

In the case of CN1CCC[C@@H]1c1cc2cnc(NC(=O)c3ccc(N4CCN(CC5CCN(c6cccc7c6CN(C6CCC(=O)NC6=O)C7=O)CC5)CC4)cc3)cc2[nH]1 (mixture of isomers) [Example 116, 4-(4-((1-(2-(2,6-dioxopiperidin-3-yl)-1-oxoisoindolin-4-yl)piperidin-4-yl)methyl)piperazin-1-yl)-N-(2-((R)-1-methylpyrrolidin-2-yl)-1H-pyrrolo[3,2-c]pyridin-6-yl)benzamide], the “MLLT1% Degradation @ 0.01 μM” value (MLLT1) is reported as “B (Category B: 50% ≤ B < 75% degradation)”, the “MLLT1% Degradation @ 0.1 μM” value (MLLT1) is reported as “A (Category A: A ≥ 75% degradation)” and the “MLLT1% Degradation @ 1 μM” value (MLLT1) is reported as “A (Category A: A ≥ 75% degradation)”. For the same compound, the IC50 (MV4-11 cells) was no more than 100 nM.
CN1CCC[C@@H]1c1cc2cnc(NC(=O)c3ccc(CCCC#Cc4cccc5c4CN([C@@H]4CCC(=O)NC4=O)C5=O)cc3)cc2[nH]1 (relative stereo) [Example 103, 4-(5-(2-((rel-R)-2,6-dioxopiperidin-3-yl)-1-oxoisoindolin-4-yl)pent-4-yn-1-yl)-N-(2-((R)-1-methylpyrrolidin-2-yl)-1H-pyrrolo[3,2-c]pyridin-6-yl)benzamide] was tested, and the “MLLT1% Degradation @ 0.01 μM” value (MLLT1) was “A (Category A: A ≥ 75% degradation)”, the “MLLT1% Degradation @ 0.1 μM” value (MLLT1) was “A (Category A: A ≥ 75% degradation)” and the “MLLT1% Degradation @ 1 μM” value (MLLT1) was “A (Category A: A ≥ 75% degradation)”. The IC50 (MV4-11 cells) was no more than 100 nM.
In the case of CN1CCC[C@@H]1c1cc2cnc(NC(=O)c3ccc(OC4CN(CC5CCN(c6ccc7c(c6)C(=O)N(C6CCC(=O)NC6=O)C7=O)CC5)C4)cc3)cc2[nH]1 (stereo partly drawn) [Example 157, 4-((1-((1-(2-(2,6-dioxopiperidin-3-yl)-1,3-dioxoisoindolin-5-yl)piperidin-4-yl)methyl)azetidin-3-yl)oxy)-N-(2-((R)-1-methylpyrrolidin-2-yl)-1H-pyrrolo[3,2-c]pyridin-6-yl)benzamide], the “MLLT1% Degradation @ 0.01 μM” value (MLLT1) is reported as “B (Category B: 50% ≤ B < 75% degradation)”, the “MLLT1% Degradation @ 0.1 μM” value (MLLT1) is reported as “A (Category A: A ≥ 75% degradation)” and the “MLLT1% Degradation @ 1 μM” value (MLLT1) is reported as “A (Category A: A ≥ 75% degradation)”. It also gave an IC50 (MV4-11 cells) of no more than 100 nM.
With CN1CCC[C@@H]1c1cc2cnc(NC(=O)c3ccc(-c4cnn(CCCCC#Cc5cccc6c5CN(C5CCC(=O)NC5=O)C6=O)c4)cc3)cc2[nH]1 (stereo partly drawn) [Example 59, 4-(1-(6-(2-(2,6-dioxopiperidin-3-yl)-1-oxoisoindolin-4-yl)hex-5-yn-1-yl)-1H-pyrazol-4-yl)-N-(2-((R)-1-methylpyrrolidin-2-yl)-1H-pyrrolo[3,2-c]pyridin-6-yl)benzamide] the “MLLT1% Degradation @ 0.01 μM” value (MLLT1) was “A (Category A: A ≥ 75% degradation)”, the “MLLT1% Degradation @ 0.1 μM” value (MLLT1) was “A (Category A: A ≥ 75% degradation)” and the “MLLT1% Degradation @ 1 μM” value (MLLT1) was “B (Category B: 50% ≤ B < 75% degradation)”. For the same compound, the IC50 (MV4-11 cells) was no more than 100 nM.
With CN1CCC[C@@H]1c1cc2cnc(NC(=O)c3ccc(-c4cnn(CCCC5CCN(c6cccc(C(=O)N[C@H]7CCC(=O)NC7=O)n6)CC5)c4)cc3)cc2[nH]1 [Example 60, N—((S)-2,6-dioxopiperidin-3-yl)-6-(4-(3-(4-(4-((2-((R)-1-methylpyrrolidin-2-yl)-1H-pyrrolo[3,2-c]pyridin-6-yl)carbamoyl)phenyl)-1H-pyrazol-1-yl)propyl)piperidin-1-yl)picolinamide] the “MLLT1% Degradation @ 0.01 μM” value (MLLT1) was “A (Category A: A ≥ 75% degradation)”, the “MLLT1% Degradation @ 0.1 μM” value (MLLT1) was “A (Category A: A ≥ 75% degradation)” and the “MLLT1% Degradation @ 1 μM” value (MLLT1) was “A (Category A: A ≥ 75% degradation)”. For the same compound, the IC50 (MV4-11 cells) was no more than 100 nM.
With CN1CCC[C@@H]1c1cc2cnc(NC(=O)c3ccc(OC4CCN(CC5CCN(c6cccc7c6CN(C6CCC(=O)NC6=O)C7=O)CC5)CC4)cc3)cc2[nH]1 (mixture of isomers) [Example 121, 4-((1-((1-(2-(2,6-dioxopiperidin-3-yl)-1-oxoisoindolin-4-yl)piperidin-4-yl)methyl)piperidin-4-yl)oxy)-N-(2-((R)-1-methylpyrrolidin-2-yl)-1H-pyrrolo[3,2-c]pyridin-6-yl)benzamide] the “MLLT1% Degradation @ 0.01 μM” value (MLLT1) was “A (Category A: A ≥ 75% degradation)”, the “MLLT1% Degradation @ 0.1 μM” value (MLLT1) was “A (Category A: A ≥ 75% degradation)” and the “MLLT1% Degradation @ 1 μM” value (MLLT1) was “A (Category A: A ≥ 75% degradation)”. It also gave an IC50 (MV4-11 cells) of no more than 100 nM.
For CN1CCC[C@@H]1c1cc2cnc(NC(=O)c3ccc(N4CCC(c5ccc(-c6cccc7c6CN(C6CCC(=O)NC6=O)C7=O)cc5)CC4)nc3)cc2[nH]1 (stereo partly drawn) [Example 67, 6-(4-(4-(2-(2,6-dioxopiperidin-3-yl)-1-oxoisoindolin-4-yl)phenyl)piperidin-1-yl)-N-(2-((R)-1-methylpyrrolidin-2-yl)-1H-pyrrolo[3,2-c]pyridin-6-yl)nicotinamide], the “MLLT1% Degradation @ 0.01 μM” value (MLLT1) was “A (Category A: A ≥ 75% degradation)”, the “MLLT1% Degradation @ 0.1 μM” value (MLLT1) was “A (Category A: A ≥ 75% degradation)” and the “MLLT1% Degradation @ 1 μM” value (MLLT1) was “A (Category A: A ≥ 75% degradation)”. The IC50 (MV4-11 cells) was no more than 100 nM.
CN1CCC[C@@H]1c1cc2cnc(NC(=O)c3ccc(CCCCC#Cc4cccc5c4CN(C4CCC(=O)NC4=O)C5=O)cc3F)cc2[nH]1 (stereo partly drawn) [Example 112, 4-(6-(2-(2,6-dioxopiperidin-3-yl)-1-oxoisoindolin-4-yl)hex-5-yn-1-yl)-2-fluoro-N-(2-((R)-1-methylpyrrolidin-2-yl)-1H-pyrrolo[3,2-c]pyridin-6-yl)benzamide] was tested, and the “MLLT1% Degradation @ 0.01 μM” value (MLLT1) was “A (Category A: A ≥ 75% degradation)”, the “MLLT1% Degradation @ 0.1 μM” value (MLLT1) was “A (Category A: A ≥ 75% degradation)” and the “MLLT1% Degradation @ 1 μM” value (MLLT1) was “A (Category A: A ≥ 75% degradation)”. The IC50 (MV4-11 cells) was no more than 100 nM.
In the case of CN1CCC[C@@H]1c1cc2cnc(NC(=O)c3ccc(CN4CCN(CC5CCN(c6cccc7c6CN(C6CCC(=O)NC6=O)C7=O)CC5)CC4)cc3)cc2[nH]1 (stereo partly drawn) [Example 194, 4-((4-((1-(2-(2,6-dioxopiperidin-3-yl)-1-oxoisoindolin-4-yl)piperidin-4-yl)methyl)piperazin-1-yl)methyl)-N-(2-((R)-1-methylpyrrolidin-2-yl)-1H-pyrrolo[3,2-c]pyridin-6-yl)benzamide], the “MLLT1% Degradation @ 0.01 μM” value (MLLT1) is reported as “B (Category B: 50% ≤ B < 75% degradation)”, the “MLLT1% Degradation @ 0.1 μM” value (MLLT1) is reported as “A (Category A: A ≥ 75% degradation)” and the “MLLT1% Degradation @ 1 μM” value (MLLT1) is reported as “A (Category A: A ≥ 75% degradation)”. The IC50 (MV4-11 cells) was no more than 100 nM.
In the case of CN1CCC[C@@H]1c1cc2cnc(NC(=O)c3cc(F)c(CCCCC#Cc4cccc5c4CN(C4CCC(=O)NC4=O)C5=O)c(F)c3)cc2[nH]1 (stereo partly drawn) [Example 156, 4-(6-(2-(2,6-dioxopiperidin-3-yl)-1-oxoisoindolin-4-yl)hex-5-yn-1-yl)-3,5-difluoro-N-(2-((R)-1-methylpyrrolidin-2-yl)-1H-pyrrolo[3,2-c]pyridin-6-yl)benzamide], the “MLLT1% Degradation @ 0.01 μM” value (MLLT1) is reported as “A (Category A: A ≥ 75% degradation)”, the “MLLT1% Degradation @ 0.1 μM” value (MLLT1) is reported as “A (Category A: A ≥ 75% degradation)” and the “MLLT1% Degradation @ 1 μM” value (MLLT1) is reported as “A (Category A: A ≥ 75% degradation)”. For the same compound, the IC50 (MV4-11 cells) was no more than 100 nM.
CN1CCC[C@@H]1c1cc2cnc(NC(=O)c3ccc(OC4CCN(CC5CCN(c6cccc7c6C(=O)N(C6CCC(=O)NC6=O)C7=O)CC5)CC4)cc3)cc2[nH]1 (stereo partly drawn) [Example 144, 4-((1-((1-(2-(2,6-dioxopiperidin-3-yl)-1,3-dioxoisoindolin-4-yl)piperidin-4-yl)methyl)piperidin-4-yl)oxy)-N-(2-((R)-1-methylpyrrolidin-2-yl)-1H-pyrrolo[3,2-c]pyridin-6-yl)benzamide] was tested, and the “MLLT1% Degradation @ 0.01 μM” value (MLLT1) was “B (Category B: 50% ≤ B < 75% degradation)”, the “MLLT1% Degradation @ 0.1 μM” value (MLLT1) was “A (Category A: A ≥ 75% degradation)” and the “MLLT1% Degradation @ 1 μM” value (MLLT1) was “A (Category A: A ≥ 75% degradation)”. The IC50 (MV4-11 cells) was no more than 100 nM.
